Laboratory results from US20230183176A1, “PROCESS OF MAKING N,N'-DIACETYL-L-CYSTINE” (Conopco, Inc., d/b/a UNILEVER, priority 2020, published 2023).

Experiments:
[1] = solubility of NDAC compared with cystine; type: physicochemical
skin cells = test: potentiating glutathione synthesis within skin cells; type: cell-based; settings: compared with cystine
[2] = organic solvents such as alcohols, ethers, esters, ketones; cited from earlier work

solubility relative to cystine [1] | SMILES | performance for potentiating glutathione synthesis within skin cells (skin cells) | solubility in organic solvents [2]
more soluble | CC(=O)N[C@@H](CSSC[C@H](NC(C)=O)C(=O)O)C(=O)O [NDAC, N,N′-diacetyl-L-Cystine] | comparable to that of cystine | –
– | N[C@@H](CSSC[C@H](N)C(=O)O)C(=O)O [cystine, L-Cystine] | – | practically insoluble
